This is an account of results in patent US8497385B2, “Bryostatin analogues, synthetic methods and uses” (The Board of Trustees of the Leland Stanford Junior …, priority 2007, dated 2013).

Test [1] deals with rat brain PKC isozyme mixture. Description: Protein Kinase C (Isozyme Mix) Assay. The conditions noted are these: for Ki: rat brain PKC isozyme mixture, read-out: Binding Affinity. Format: binding.
In the next test the target is PKCδ-C1B (Homo sapiens (Human), UniProt Q05655). Description: PKCδ-C1B Assay. The class given is binding.
Sequence of PKCδ-C1B (Q05655 whole entry, looked up): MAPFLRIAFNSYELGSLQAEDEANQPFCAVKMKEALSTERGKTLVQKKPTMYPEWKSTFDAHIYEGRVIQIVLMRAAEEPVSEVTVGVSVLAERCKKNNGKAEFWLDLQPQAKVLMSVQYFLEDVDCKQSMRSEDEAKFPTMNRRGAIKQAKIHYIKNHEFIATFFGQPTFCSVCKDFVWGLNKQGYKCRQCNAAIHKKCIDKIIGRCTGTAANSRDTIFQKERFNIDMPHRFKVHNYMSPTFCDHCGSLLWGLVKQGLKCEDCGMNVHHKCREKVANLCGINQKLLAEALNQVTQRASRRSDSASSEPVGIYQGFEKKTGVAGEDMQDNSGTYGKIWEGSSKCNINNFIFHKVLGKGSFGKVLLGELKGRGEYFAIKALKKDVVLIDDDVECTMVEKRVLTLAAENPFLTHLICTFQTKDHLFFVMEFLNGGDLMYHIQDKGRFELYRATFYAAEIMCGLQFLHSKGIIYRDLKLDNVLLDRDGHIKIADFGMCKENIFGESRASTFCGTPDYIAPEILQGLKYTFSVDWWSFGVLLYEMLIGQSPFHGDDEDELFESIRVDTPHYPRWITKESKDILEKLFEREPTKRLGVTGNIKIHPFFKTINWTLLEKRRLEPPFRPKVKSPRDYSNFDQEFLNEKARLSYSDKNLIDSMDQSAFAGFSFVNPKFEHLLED
The next test relates to P388 cell line. Description: P388 Murine Lymphocytic Leukemia Cell Assay. The conditions noted are these: 5 days incubation, MTT. Format: cell-based. As to the method:
Cells from a P388 cell line (CellGate, Inc., Sunnyvale, Calif.) are grown in RPMI 1640 cell medium containing fetal calf serum (10%), L-glutamine, penicillin, streptomycin and are split twice weekly. All compounds are first diluted with DMSO. Later serial dilutions are done with a phosphate buffer solution (HYQ DPBS modified phosphate buffered saline). All dilutions are done in glass vials and the final DMSO concentration is always below 0.5% by volume. Final two-fold dilutions are done in a 96 well plate using cell media so that each well contains 50 μL. All compounds are assayed in quadruplicate over 12 concentrations. Cell concentration is measured using a hemacytometer and the final cell concentration is adjusted to 1×10^4 cells/mL with cell medium. The resulting solution of cells (50 μL) is then added to each well and the plates are incubated for 5 days in a 37° C., 5% CO2, humidified incubator (Sanyo CO2 incubator). MTT solution (3-[4,5-dimethylthiazol-2-yl]-2,5-diphenyltetrazolium bromide, 10 μL) is then added to each well and the plates are re-incubated under identical conditions for 2 h. To each well is then added acidified isopropanol (150 μL of i-PrOH solution containing 0.05 N HCl) and mixed thoroughly. The plates are then scanned at 595 nm and the absorbances are read (Wallac Victor 1420 Multilabel Counter). The resulting data is then analyzed to determine an ED50 value using the Prism software package (GraphPad).

Where two headings read alike, the source gives them in different places.

Regarding `CCCCCCCC(=O)O[C@H]1/C(=C/C(=O)OC)C[C@H]2C[C@H](CO)OC(=O)C[C@H](O)CCO[C@H](c3ccc(Br)cc3)C[C@@H]3CCO[C@H](/C=C/C(C)(C)[C@]1(O)O2)O3` [Formula 18C], the Ki in test [1] amounted to 1.6 nM.
In the case of `CCCCCCCC(=O)O[C@H]1/C(=C/C(=O)OC)C[C@H]2C[C@H](CO)OC(=O)C[C@H](O)CCO[C@H](c3ccccc3)C[C@@H]3CCO[C@H](/C=C/C(C)(C)[C@]1(O)O2)O3` [Formula 19B.0], the Ki in test [1] was found to be 2.3 nM.
As to `CCCCCCCC(=O)O[C@H]1/C(=C/C(=O)OC)C[C@H]2C[C@H](CO)OC(=O)C[C@H](O)CCO[C@H](c3ccc(-c4ccccc4)cc3)C[C@@H]3CCO[C@H](/C=C/C(C)(C)[C@]1(O)O2)O3` [Formula 19B.1], the Ki in test [1] was found to be 3.1 nM.
Still for that read-out and setting: the result for `CCCCCCCC(=O)O[C@H]1/C(=C/C(=O)OC)C[C@H]2C[C@H](CO)OC(=O)C[C@H](O)CCO[C@H](c3ccc(CCCOCCOCC)cc3)C[C@@H]3CCO[C@H](/C=C/C(C)(C)[C@]1(O)O2)O3` [Formula 19B.2] reads 3.8 nM.
On the same count and under the same terms, the result for `CCCCCC/C=C/c1ccc([C@@H]2C[C@@H]3CCO[C@H](/C=C/C(C)(C)[C@]4(O)O[C@@H](C/C(=C\C(=O)OC)[C@@H]4OC(=O)CCCCCCC)C[C@H](CO)OC(=O)C[C@H](O)CCO2)O3)cc1` [Formula 19B.3] reads 4.6 nM.
For `COC(=O)/C=C1\C[C@H]2C[C@H]([C@@H](C)O)OC(=O)C[C@H](O)C[C@@H]3CCC[C@H](C[C@@H]4CCO[C@H](/C=C/C(C)(C)[C@](O)(O2)[C@H]1OC(C)=O)O4)O3` [Formula 702.2], the Ki on PKCδ-C1B was 232 ± 11 nM. For the same compound, in the test on P388 cell line, the “P388 Assay ED50” value is 181 nM.
Compound `CCCCCCC(=O)OC1C(=CC(=O)OC)CC2CC(C(C)O)OC(=O)CC(O)CC3CCCC(CC4CCOC(C=CC(C)(C)C1(O)O2)O4)O3` (stereo not shown) [Formula 702.3] showed a Ki on PKCδ-C1B (competition with tritiated phorbol 12,13-dibutyrate) of 35 nM. Besides, the “P388 Assay ED50” value in the test on P388 cell line was 38 nM.
Consider `CCCC(=O)O[C@@H]1[C@@H](C)[C@@]2(O)[C@@H](C=C(CO)C[C@]3(O)C(=O)C(C)=C[C@@H]23)[C@@H]2C(C)(C)[C@]12OC(=O)CCC` [Phorbol dibutyrate, phorbol 12,13-dibutyrate, reference compound], for which, in test [1] (under identical conditions to the PKC isozyme mix assay, read-out: Kd of [H^3]-PDBu), the Kd is 1.55 nM.

Broadly, the Kd is the concentration at which binding is half-saturated.
